In the assay the target is T1, horseradish peroxidase (HRP) tagged delF508-CFTR (Homo sapiens, UniProt P13569, DEL508-508).
T1 construct: expressed in transfected cells
Nature of the assay: Measurement of delF508-CFTR-HRP surface expression in CFBE41o- cells.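 For DelF508-CFTR-HRP Amax %: percent efficacy relative to reference corrector lumacaftor.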 The note with it: CFBE41o- cells; for Emax: read-out: DelF508-CFTR-HRP Amax %; for EC50: read-out: DelF508-CFTR-HRP EC50. In kind it is cell-based. An outline of the steps: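 Surface-trafficked delF508-CFTR detected via extracellular HRP tag, read as luminescence from a membrane-impermeant substrate in CFBE41o- cells. Cells pre-induced 48h with 500 ng/mL doxycycline, then exposed 24h at 37° C to a 10-point, 3-fold dilution series from 10 μM (DMSO ≤0.5%). Triplicate dose-responses fitted logistically for EC50 after per-plate normalization; fold change versus reference compound.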

Where [1] appears, read: delF508-CFTR-HRP surface expression.
Where [2] appears, read: mean of at least two replicates.

Each structure is given as a SMILES string. Structures can show the parent of a compound that is named as a salt. Where two headings read alike, the source gives them in different places.

What is called EC50 is the midpoint of the concentration-response curve.

T1 sequence (P13569 with tags, fused parts or gaps DEL508-508): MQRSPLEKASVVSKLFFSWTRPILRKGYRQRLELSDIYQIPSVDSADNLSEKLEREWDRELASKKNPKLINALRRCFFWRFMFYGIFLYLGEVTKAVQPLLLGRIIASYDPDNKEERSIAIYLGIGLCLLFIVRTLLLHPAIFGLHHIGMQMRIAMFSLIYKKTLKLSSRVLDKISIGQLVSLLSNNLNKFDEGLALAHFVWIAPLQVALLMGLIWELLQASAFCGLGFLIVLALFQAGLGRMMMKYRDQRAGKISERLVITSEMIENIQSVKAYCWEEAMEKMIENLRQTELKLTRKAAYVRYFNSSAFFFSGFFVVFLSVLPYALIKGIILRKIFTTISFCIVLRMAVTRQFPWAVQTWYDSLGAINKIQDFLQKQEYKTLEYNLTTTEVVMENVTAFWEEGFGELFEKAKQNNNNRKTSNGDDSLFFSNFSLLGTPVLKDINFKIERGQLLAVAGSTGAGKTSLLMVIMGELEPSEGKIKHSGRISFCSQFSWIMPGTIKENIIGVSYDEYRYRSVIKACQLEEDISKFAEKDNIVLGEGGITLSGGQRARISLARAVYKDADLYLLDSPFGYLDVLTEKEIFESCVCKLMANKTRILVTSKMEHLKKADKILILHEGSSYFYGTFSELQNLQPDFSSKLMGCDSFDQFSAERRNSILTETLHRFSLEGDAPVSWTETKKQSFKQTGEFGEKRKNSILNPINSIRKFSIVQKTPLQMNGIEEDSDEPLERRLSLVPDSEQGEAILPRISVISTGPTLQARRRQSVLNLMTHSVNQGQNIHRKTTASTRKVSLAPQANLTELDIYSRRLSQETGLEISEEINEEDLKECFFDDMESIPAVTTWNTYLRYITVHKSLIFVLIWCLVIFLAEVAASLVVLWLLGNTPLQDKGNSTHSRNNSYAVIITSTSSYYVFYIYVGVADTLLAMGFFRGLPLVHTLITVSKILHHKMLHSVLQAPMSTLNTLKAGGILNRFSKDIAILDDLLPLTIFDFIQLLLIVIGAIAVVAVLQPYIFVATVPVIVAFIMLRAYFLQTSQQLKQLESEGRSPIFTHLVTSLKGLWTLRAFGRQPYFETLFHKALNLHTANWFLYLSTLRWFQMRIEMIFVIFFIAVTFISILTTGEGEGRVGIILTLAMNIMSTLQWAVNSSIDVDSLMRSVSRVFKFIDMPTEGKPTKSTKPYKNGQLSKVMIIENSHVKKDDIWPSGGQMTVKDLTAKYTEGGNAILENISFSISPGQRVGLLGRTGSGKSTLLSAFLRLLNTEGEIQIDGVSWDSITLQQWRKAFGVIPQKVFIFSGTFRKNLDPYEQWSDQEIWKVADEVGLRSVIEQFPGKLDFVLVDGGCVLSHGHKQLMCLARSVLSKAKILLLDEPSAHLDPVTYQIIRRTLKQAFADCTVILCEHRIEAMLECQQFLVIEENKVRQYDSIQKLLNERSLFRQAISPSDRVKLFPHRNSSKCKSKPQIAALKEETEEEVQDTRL

For `Nc1cccc(S(=O)(=O)Nc2ccc(Cl)c(-c3c(F)cccc3Cl)n2)n1` [Example 39, 6-amino-N-(5-chloro-6-(2-chloro-6-fluorophenyl)pyridin-2-yl)pyridine-2-sulfonamide], under setting [1], the Emax came out at 374% and the EC50 is 1.9 µM.

For the molecule `Cc1ccccc1-c1nc(NS(=O)(=O)c2cccc(NC3CCCC(C(=O)O)C3)n2)ccc1C(F)(F)F` (mixture of isomers) [Example 460, 3-((6-(N-(6-(o-tolyl)-5-(trifluoromethyl)pyridin-2-yl)sulfamoyl)pyridin-2-yl)amino)cyclohexanecarboxylic acid], the EC50 under setting [2] was 1.81 µM. Also, the Emax (surface expression Amax) turned out to be 362%.

`COc1cc(NS(=O)(=O)c2cccc(N3CC(C)(O)C3)n2)nc(-c2c(C)cccc2C)c1` [Example 206, N-(6-(2,6-dimethylphenyl)-4-methoxypyridin-2-yl)-6-(3-hydroxy-3-methylazetidin-1-yl)pyridine-2-sulfonamide]: under setting [1], the Emax is 95.9% and the EC50 turned out to be 3.7 µM.

For the molecule `Cc1ccccc1-c1nc(NS(=O)(=O)c2cccc(N[C@@H]3CCC[C@@H](C(=O)O)C3)n2)ccc1C(F)(F)F` (relative stereo) [Example 463, (1,3-trans)-3-((6-(N-(6-(o-tolyl)-5-(trifluoromethyl)pyridin-2-yl)sulfamoyl)pyridin-2-yl)amino)cyclohexanecarboxylic Acid], the EC50 under setting [2] worked out at 2.95 µM. For the setting “surface expression Amax”, the Emax was determined as 410%.

Consider `Cc1cccc(C(F)(F)F)c1-c1nc(NS(=O)(=O)c2cccc(N)n2)ccc1Cl` [Example 53, 6-amino-N-(5-chloro-6-(2-methyl-6-(trifluoromethyl)phenyl)pyridin-2-yl)pyridine-2-sulfonamide], for which, under setting [1], the Emax is 325% and the EC50 worked out at 1.84 µM.

With `Cc1ccccc1-c1nc(NS(=O)(=O)c2cccc(N3CCN(C(=O)OC(C)(C)C)C[C@H]3C(=O)O)n2)ccc1C(F)(F)F` [Example 350, (2S)-4-[(tert-butoxy)carbonyl]-1-(6-{[6-(2-methylphenyl)-5-(trifluoromethyl)pyridin-2-yl]sulfamoyl}pyridin-2-yl)piperazine-2-carboxylic Acid], under setting [1], the Emax was determined as 232% and the EC50 amounted to 1.9 µM.

On to `CCCc1ccccc1-c1nc(NS(=O)(=O)c2cccc(N3CCC(C)(C(=O)O)CC3)n2)ccc1C(F)(F)F` [Example 398, 4-methyl-1-(6-(N-(6-(2-propylphenyl)-5-(trifluoromethyl)pyridin-2-yl)sulfamoyl)pyridin-2-yl)piperidine-4-carboxylic Acid], for which, under setting [2], the EC50 stood at 0.615 µM. For the same molecule, under “surface expression Amax”, the Emax was 711%.

In the case of `Cc1ccccc1-c1nc(NS(=O)(=O)c2cccc(N3CCN(C(=O)OC(C)(C)C)[C@H](C(=O)O)C3)n2)ccc1C(F)(F)F` [Example 334, (2S)-1-[(tert-butoxy)carbonyl]-4-(6-{[6-(2-methylphenyl)-5-(trifluoromethyl)pyridin-2-yl]sulfamoyl}pyridin-2-yl)piperazine-2-carboxylic Acid], under setting [1], the Emax amounted to 164% and the EC50 came to 2.47 µM.

In the case of `CCc1ccccc1-c1nc(NS(=O)(=O)c2cccc(N3CCC[C@@](C)(C(=O)O)C3)n2)ccc1Cl` [Example 393, (R)-1-(6-(N-(5-chloro-6-(2-ethylphenyl)pyridin-2-yl)sulfamoyl)pyridin-2-yl)-3-methylpiperidine-3-carboxylic Acid], the EC50 under setting [2] amounted to 1.04 µM. In addition, the Emax (surface expression Amax) was found to be 680%.

Consider `CC(C)c1ccccc1-c1nc(NS(=O)(=O)c2ccc(N)nc2)ccc1Cl` [Example 45, 6-amino-N-(5-chloro-6-(2-isopropylphenyl)pyridin-2-yl)pyridine-3-sulfonamide], for which, under setting [1], the Emax was 345% and the EC50 came to 1.24 µM.

With `Cc1ccc(F)cc1-c1nc(NS(=O)(=O)c2cccc(N3CCC[C@@](C)(C(=O)O)C3)n2)ccc1C(F)(F)F` [Example 416, (3R)-1-(6-{[6-(5-fluoro-2-methylphenyl)-5-(trifluoromethyl)pyridin-2-yl]sulfamoyl}pyridin-2-yl)-3-methylpiperidine-3-carboxylic Acid], the EC50 under setting [2] worked out at 1.9 µM.

As for `Cc1ccccc1-c1nc(NS(=O)(=O)c2cccc(N3CCC34CN(C(=O)OC(C)(C)C)C4)n2)ccc1C(F)(F)F` [Example 301, tert-butyl 1-(6-(N-(6-(o-tolyl)-5-(trifluoromethyl)pyridin-2-yl)sulfamoyl)pyridin-2-yl)-1,6-diazaspiro[3.3]heptane-6-carboxylate], under setting [1], the Emax came out at 546% and the half-maximal effective concentration (EC50) was determined as 0.67 µM.

As for `Cc1cccc(C)c1-c1nc(NS(=O)(=O)c2cccc(N3CCN(C(=O)OC(C)(C)C)CC3=O)n2)ccc1Cl` [Example 188, tert-butyl 4-(6-(N-(5-chloro-6-(2,6-dimethylphenyl)pyridin-2-yl)sulfamoyl)pyridin-2-yl)-3-oxopiperazine-1-carboxylate], under setting [1], the Emax was 658% and the EC50 was determined as 0.971 µM.

For `Cc1ccc(C(F)(F)F)cc1-c1nc(NS(=O)(=O)c2ccnc(N)c2)ccc1Cl` [Example 49, 2-amino-N-(5-chloro-6-(2-methyl-5-(trifluoromethyl)phenyl)pyridin-2-yl)pyridine-4-sulfonamide], under setting [1], the Emax was found to be 333% and the EC50 is 3.05 µM.

In the case of `Cc1ccc(F)cc1-c1nc(NS(=O)(=O)c2cccc(N3CCN(C(C)(C)C)CC3)n2)ccc1C(F)(F)F` [Example 143, 6-(4-(tert-butyl)piperazin-1-yl)-N-(6-(5-fluoro-2-methylphenyl)-5-(trifluoromethyl)pyridin-2-yl)pyridine-2-sulfonamide], under setting [1], the Emax was 888% and the EC50 came to 2.99 µM.

On to `Cc1ccccc1-c1nc(NS(=O)(=O)c2cccc(N3CCCC4(CC4C(=O)O)C3)n2)ccc1C(F)(F)F` (stereo not drawn) [Example 441, 5-(6-(N-(6-(o-tolyl)-5-(trifluoromethyl)pyridin-2-yl)sulfamoyl)pyridin-2-yl)-5-azaspiro[2.5]octane-1-carboxylic Acid], for which the EC50 under setting [2] turned out to be 2.31 µM. Moreover, the Emax (surface expression Amax) came to 299%.

For the molecule `Cc1c(F)cccc1-c1nc(NS(=O)(=O)c2cccc(N3CCNCC3)n2)ccc1Cl` [Example 194, N-[5-chloro-6-(3-fluoro-2-methylphenyl)pyridin-2-yl]-6-(piperazin-1-yl)pyridine-2-sulfonamide hydrochloride], under setting [1], the Emax worked out at 177% and the concentration for a half-maximal effect (EC50) worked out at 3.84 µM.

Consider `CC(C)COc1ccccc1-c1nc(NS(=O)(=O)c2cccc(N3CCC[C@@](C)(C(=O)O)C3)n2)ccc1C(F)(F)F` [Example 396, (R)-1-(6-(N-(6-(2-isobutoxyphenyl)-5-(trifluoromethyl)pyridin-2-yl)sulfamoyl)pyridin-2-yl)-3-methylpiperidine-3-carboxylic Acid], for which, under setting [2], the EC50 amounted to 0.845 µM.

Take `Cc1ccccc1-c1nc(NS(=O)(=O)c2ccc(N)nc2)ccc1Cl` [Example 40, 6-amino-N-(5-chloro-6-(o-tolyl)pyridin-2-yl)pyridine-3-sulfonamide]: under setting [1], the Emax was 373% and the EC50 was found to be 2.36 µM.

On to `Cc1ccc(F)cc1-c1nc(NS(=O)(=O)c2cccc(N3CCN4CC[C@H]3C4)n2)ccc1C(F)(F)F` [Example 202, 6-((5S)-1,4-diazabicyclo[3.2.1]octan-4-yl)-N-(6-(5-fluoro-2-methylphenyl)-5-(trifluoromethyl)pyridin-2-yl)pyridine-2-sulfonamide], for which, under setting [1], the Emax came out at 159% and the EC50 was 3.93 µM.

Regarding `Cc1cccc(C)c1-c1nc(NS(=O)(=O)c2cccc(N3CCC[C@@](C)(C(=O)O)C3)n2)ccc1C(F)(F)F` [Example 465, (R)-1-(6-(N-(6-(2,6-dimethylphenyl)-5-(trifluoromethyl)pyridin-2-yl)sulfamoyl)pyridin-2-yl)-3-methylpiperidine-3-carboxylic Acid], the EC50 under setting [2] stood at 1.73 µM.

For the molecule `Cc1ccc(Cl)cc1-c1nc(NS(=O)(=O)c2cccc(N3CCC[C@@](C)(C(=O)O)C3)n2)ccc1C(F)(F)F` [Example 450, (R)-1-(6-(N-(6-(5-chloro-2-methylphenyl)-5-(trifluoromethyl)pyridin-2-yl)sulfamoyl)pyridin-2-yl)-3-methylpiperidine-3-carboxylic Acid], the EC50 under setting [2] was determined as 1.1 µM.

With `O=S(=O)(Nc1ccc(Cl)c(-c2cccc(F)c2Cl)n1)c1cccc(N2CCNCC2)n1` [Example 159, N-(5-chloro-6-(2-chloro-3-fluorophenyl)pyridin-2-yl)-6-(piperazin-1-yl)pyridine-2-sulfonamide hydrochloride], under setting [1], the Emax is 130% and the EC50 stood at 4.42 µM.

As for `COc1cc(NS(=O)(=O)c2cccc(N3CCNCC3)n2)nc(-c2c(C)cccc2C)c1` [Example 139, N-(6-(2,6-dimethylphenyl)-4-methoxypyridin-2-yl)-6-(piperazin-1-yl)pyridine-2-sulfonamide], under setting [1], the Emax came out at 53.2% and the EC50 came out at 4.97 µM.

On to `Cc1ccccc1-c1nc(NS(=O)(=O)c2cccc(N3CCC4(CC4C(=O)O)C3)n2)ccc1C(F)(F)F` (stereo not drawn) [Example 419, 5-(6-(N-(6-(o-tolyl)-5-(trifluoromethyl)pyridin-2-yl)sulfamoyl)pyridin-2-yl)-5-azaspiro[2.4]heptane-1-carboxylic Acid], for which the EC50 under setting [2] came out at 2.39 µM. Further, the Emax (surface expression Amax) came to 644%.

In the case of `Nc1cccc(S(=O)(=O)Nc2ccc(Cl)c(-c3c(F)ccc(F)c3F)n2)n1` [Example 78, 6-amino-N-(5-chloro-6-(2,3,6-trifluorophenyl)pyridin-2-yl)pyridine-2-sulfonamide], under setting [1], the Emax stood at 141% and the EC50 worked out at 2.73 µM.

The values above are taken from US11066369B2, “N-(pyridin-2-yl)pyridine-sulfonamide derivatives and their use in the treatment of disease” (Novartis AG, priority 2016, dated 2021).
